Consider five molecules from US20220409535A1, “BIOLOGICAL AGENT-EXOSOME COMPOSITIONS AND USES THEREOF” (The University of North Carolina at Chapel Hill, priority 2016, published 2022).

As a reminder, the Vss is the apparent volume that relates the amount in the body to the concentration in plasma or blood. The low end stands for confinement near the circulation, the high end for extensive tissue distribution.

The test system of data set [1] is hCMEC/D3 cells. Kind of data set: Flow cytometry of cell uptake of Mϕ exosomes and endocytosis markers. It counts as cell-based, human. The conditions noted are these: for effect on uptake of Mϕ exosomes: CM-DiI labeled exosomes, 4 h; for effect on uptake of respective endocytosis marker: sucrose of transferrin, nystatin of CTB, EIPA of dextran (70 kDa). The protocol: Flow Cytometry of Cell Uptake. hCMEC/D3 cells were grown in 24-well plates at […] for 4-5 days to reach confluence. Exosomes were labeled by adding CM-DiI dyes (2 μg/ml, Life Technologies) to the medium before the first […] pelleting step. In the uptake mechanism studies, the cells were pretreated with endocytosis inhibitors, carbohydrates or EGTA for 0.5 h, and then co-treated with CM-DiI labeled exosomes (0.6×10^10 exosomes/ml) for 4 h. The inhibition of endocytosis markers uptake was studied similarly. The endocytosis markers used were Alexa Fluor 488-Transferrin (10 μg/ml, Life technologies) for clathrin mediated endocytosis, Alexa Fluor 488-CTB (5 μg/ml, Life technologies) for caveolae mediated endocytosis, and FITC-Dextran (70 kDa, Sigma) (10 mg/ml) for macropinocytosis. The antibody block assays were done by co-incubating exosomes with antibodies or isotope controls at 100 μg/ml for 4 h. The cells were washed trice by PBS, detached by 0.25% trypsin/EDTA, collected by centrifugation at 100 g for 10 min, fixed with 4% paraformaldehyde for 10 min, and then resuspended in 0.35 ml PBS. Viable singlets were gated based on forward scatter and side scatter. 5,000-10,000 viable singlets were recorded for each sample on Becton Dickinson LSRII (BD Biosciences) using 488 nm and 532 nm lasers. Unless otherwise noted in figure legend, data are not normalized and reported as mean fluorescence±SD of 3 replicate wells.
(In general: A flow cytometer gives signals particle by particle.)

Data set [2] in a line: PK and distribution in healthy CD-1 mice. In kind it is in vivo, mouse. The conditions noted are these: jugular vein. Here is the method:
Iodine Labeling. Exosomes and proteins were labeled with iodine by chloramine-T method (Yi et al., J. Controlled Release 191:34 (2014)). Briefly, exosomes or proteins were mixed with 1 mCi of Na^125I or Na^131I (Perkin Elmer) and 10 μg of chloramine-T in phosphate buffer (0.25 M, pH 7.5) for 60 s. Labeled exosomes and proteins were purified by Illustra Nap-5 columns (Life technologies) and collected in tubes pretreated with 1% BSA in PBS to prevent nonspecific adsorption. The iodine association (iodine in labeled sample/total iodine) was determined by trichloroacetic acid precipitation method (Yi et al., J. Controlled Release 191:34 (2014)). Briefly, 1 μl of purified samples was mixed with 0.5 ml of 1% BSA in PBS and 0.5 ml of 30% TCA, and then centrifuged at 5400 g for 10 min. The resulting pellet and supernatant were counted on r-counter (PerkinElmer). The iodine association was calculated as the percentage of pellet radioactivity to total radioactivity.
Animal Procedure. Mice were anesthetized with 40% urethane (4 g/kg) by intraperitoneal injection. Iodine labeled substances (4×10^5 cpm) were injected to the right jugular vein. At each time point, blood was collected from the left carotid artery, allowed to clot and then centrifuged at 5400 g for 10 min to collect serum. The whole brain and peripheral organs were removed and weighed immediately after blood sampling. The radioactivity of serum and tissues were counted and normalized to injected dose (ID) by volume (ml) or weight (g) (% ID/ml or % ID/g). An injection check representing ID was also counted (n=3).
PK data analysis. The noncompartmental PK parameters Vss (ml), Cl (ml/min), MRTlast and MRTinf (h) were estimated using Phoenix® WinNonlin® 6.3 (Pharsight). The Ki (slope) and Vi (y-intercept) were calculated from the linear portion of multiple-time regression analysis (Price et al., J. Pharmacol. Exper. Ther. 333:253 (2010); Patlak et al., J. Cerebral Blood Flow Metab. 3:1 (1983); Patlak et al., J. Cerebral Blood Flow Metab. 5:584 (1985)). Brain/serum ratio (Am/Cpt, ml/g) of co-injected BSA was used to correct for the vascular space or leakage (Banks et al, Brain Behav. Immun. 2010, 24:102 (2010)), and subtracted from that of tested substance to get the delta brain/serum ratio. The delta brain/serum ratio was plotted against exposure time following equation

The conditions of data set [3]: Shinoda et al.; cited from earlier work.

As to `OC[C@H]1O[C@@](CO)(O[C@H]2O[C@H](CO)[C@@H](O)[C@H](O)[C@H]2O)[C@@H](O)[C@@H]1O` [sucrose], in data set [1], the “effect on uptake of Mϕ exosomes” value is “significantly decreased the uptake of Mϕ exosomes” and the “effect on uptake of respective endocytosis marker” value is reported as “diminished uptake of a respective endocytosis marker”.

As to “^131I-BSA: 131I-labeled bovine serum albumin, co-injected vascular marker”, in data set [2], the “Cl” value was 0.0039 mL/min, the “MRTinf” value is 6.10 h, the “MRTlast” value turned out to be 0.94 h and the “Vss” value was determined as 1.44 mL. Further, in data set [3], the “Cl, previously published data” value is 0.0035 mL/min and the “Vss, previously published data” value is 1.5 mL.

As to `C[C@@H]1[C@H](O)[C@@H](C)/C=C/C=C/CC/C=C/C=C/C=C/C=C/C(O[C@H]2O[C@H](C)[C@@H](O)[C@H](N)[C@@H]2O)CC2O[C@](O)(CC(O)C(O)CCC(O)CC(O)CC(O)CC(=O)O[C@H]1C)CC(O)C2C(=O)O` (stereo partly shown) [nystatin], in data set [1], the “effect on uptake of Mϕ exosomes” value is recorded as “significantly decreased the uptake of Mϕ exosomes” and the “effect on uptake of respective endocytosis marker” value is reported as “diminished uptake of a respective endocytosis marker”.

`O=C(O)CN(CCOCCOCCN(CC(=O)O)CC(=O)O)CC(=O)O` [EGTA, ethylene glycol-bis(2-aminoethylether)-N, N, N′, N′-tetraacetic acid]: in data set [1], the “effect on uptake of Mϕ exosomes” value is recorded as “decreased”.

`CCN(c1nc(N)c(C(=O)N=C(N)N)nc1Cl)C(C)C` [EIPA, 5-(N-Ethyl-N-isopropyl) amiloride]: in data set [1], the “effect on uptake of Mϕ exosomes” value is on record as “significantly decreased the uptake of Mϕ exosomes” and the “effect on uptake of respective endocytosis marker” value is reported as “diminished uptake of a respective endocytosis marker”.
